This note sets out measurements from patent US20230167094A1, “H4 ANTAGONIST COMPOUNDS” (Heptares Therapeutics Limited, priority 2020, published 2023).

One data set concerns the target T1, human H4 receptor (Homo sapiens, UniProt Q9H3N8).
T1 construct: expressed in transfected cells; host or cells: HEKf cells infected with baculovirus
Put plainly: H4 Antagonist Functional Dynamic Mass Redistribution Assay. Format: cell-based. Particulars: HEKf cells expressing human H4 receptor, antagonist mode vs histamine EC80, pKb by Cheng-Prusoff; for Kb: read-out: Human H4 DMR fpKb (converted). The procedure: H4 Antagonist Functional Dynamic Mass Redistribution Assay
HEKf cells were infected using baculovirus expressing the human H4 receptor, plated into fibronectin-coated EPIC plates at a density of 10,000 cells/well and incubated overnight at 37° C. The medium on cells was changed to […] HBSS with 20 mM HEPES per well and 30 nL DMSO were added per well by LabCyte ECHO acoustic dispensing. Following 2 h equilibration at room temperature, 30 nL of H4 ligands prepared in DMSO were stamped by LabCyte ECHO acoustic dispensing into seeded EPIC plates and cellular dynamic mass redistribution was monitored using a Corning EPIC plate reader. Following 45 min measurement, 30 nL/well of histamine EC80 was added and monitored to obtain antagonist assay data. Maximum baseline-corrected responses in pm were used to generate concentration response curves. EC50 values were generated using a 4-parameter logistical fit equation to quantify agonist potencies. Functional antagonist affinity values were generated using the Cheng-Prusoff equation to calculate a pKb value using the antagonist assay data.

Another data set has as its target hERG (Homo sapiens, UniProt Q12809). Put plainly: hERG assay (QPatch automated patch clamp, CHO cells). It is filed as cell-based. Particulars: CHO cells stably expressing hERG, 1, 3, 10 and 30 μM, tail current, room temperature; for IC50: read-out: hERG pIC50 (converted). The procedure: All experiments were performed on the QPatch automated patch clamp platform.
Series resistance (4-15 MΩ) was compensated by >80%.
A general note: The hERG channel carries a current that helps repolarise heart muscle cells.

Chain of hERG (Q12809 whole entry): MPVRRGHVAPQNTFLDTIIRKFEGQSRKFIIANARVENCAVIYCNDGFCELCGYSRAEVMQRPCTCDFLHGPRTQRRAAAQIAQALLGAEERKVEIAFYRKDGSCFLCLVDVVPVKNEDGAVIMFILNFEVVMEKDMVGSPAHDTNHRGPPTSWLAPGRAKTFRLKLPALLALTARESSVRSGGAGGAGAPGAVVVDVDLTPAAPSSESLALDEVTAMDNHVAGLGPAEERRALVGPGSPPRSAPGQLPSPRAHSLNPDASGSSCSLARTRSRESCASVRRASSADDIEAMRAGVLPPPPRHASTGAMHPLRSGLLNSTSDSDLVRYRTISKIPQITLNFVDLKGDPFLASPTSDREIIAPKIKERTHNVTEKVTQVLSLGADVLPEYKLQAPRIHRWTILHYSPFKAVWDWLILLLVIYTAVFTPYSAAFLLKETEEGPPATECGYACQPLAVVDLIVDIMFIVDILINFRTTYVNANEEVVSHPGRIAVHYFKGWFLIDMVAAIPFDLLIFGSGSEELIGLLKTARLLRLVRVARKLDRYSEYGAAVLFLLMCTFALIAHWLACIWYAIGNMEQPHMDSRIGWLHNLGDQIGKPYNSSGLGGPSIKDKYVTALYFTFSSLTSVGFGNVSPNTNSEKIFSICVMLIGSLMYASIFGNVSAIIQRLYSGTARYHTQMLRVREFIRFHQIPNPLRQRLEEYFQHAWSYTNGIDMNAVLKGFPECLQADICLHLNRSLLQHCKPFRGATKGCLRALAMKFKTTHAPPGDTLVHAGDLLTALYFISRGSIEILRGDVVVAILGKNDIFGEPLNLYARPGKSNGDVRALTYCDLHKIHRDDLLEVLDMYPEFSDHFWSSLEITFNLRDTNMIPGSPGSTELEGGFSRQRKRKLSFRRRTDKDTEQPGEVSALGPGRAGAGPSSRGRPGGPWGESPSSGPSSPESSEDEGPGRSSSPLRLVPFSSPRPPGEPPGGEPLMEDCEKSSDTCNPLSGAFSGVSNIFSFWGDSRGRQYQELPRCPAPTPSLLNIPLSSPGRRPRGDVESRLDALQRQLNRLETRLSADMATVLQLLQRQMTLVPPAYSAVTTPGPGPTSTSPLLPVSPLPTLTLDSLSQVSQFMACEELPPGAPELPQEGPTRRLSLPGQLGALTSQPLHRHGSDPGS
T1 sequence (Q9H3N8 whole entry): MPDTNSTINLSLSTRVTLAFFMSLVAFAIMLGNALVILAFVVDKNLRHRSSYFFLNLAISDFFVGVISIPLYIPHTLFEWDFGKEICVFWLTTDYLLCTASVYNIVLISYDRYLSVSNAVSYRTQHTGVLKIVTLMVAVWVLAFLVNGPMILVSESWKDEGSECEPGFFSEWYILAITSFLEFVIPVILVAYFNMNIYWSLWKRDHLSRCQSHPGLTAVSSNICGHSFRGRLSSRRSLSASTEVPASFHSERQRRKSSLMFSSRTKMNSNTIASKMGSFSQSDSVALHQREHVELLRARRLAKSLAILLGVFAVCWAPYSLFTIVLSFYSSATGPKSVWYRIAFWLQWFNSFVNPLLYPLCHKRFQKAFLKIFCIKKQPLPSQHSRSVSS

As for `CNC1CN(c2cc(-c3cnn(C)c3Br)nc(N)n2)C1` [Example 30, 4-(5-Bromo-1-methyl-1H-pyrazol-4-yl)-6-(3-(methylamino)azetidin-1-yl)pyrimidin-2-amine], the Kb at human H4 receptor was 1.58 nM. Besides, the IC50 on hERG is > 100000 nM.
`CNC1CN(c2cc(-c3cn(C(C)C)nc3C)nc(N)n2)C1` [Example 11, 4-(1-Isopropyl-3-methyl-1H-pyrazol-4-yl)-6-(3-(methylamino)azetidin-1-yl)pyrimidin-2-amine]: the Kb at human H4 receptor was 10 nM. For the same compound, the IC50 on hERG was > 100000 nM.
In the same order, the values of `CNC1CN(c2cc(-c3cc(C)nn3C)nc(N)n2)C1` [Example 24, 4-(1,3-Dimethyl-1H-pyrazol-5-yl)-6-(3-(methylamino)azetidin-1-yl)pyrimidin-2-amine] are 126 nM and > 100000 nM.
In the same order, the values of `CNC1CN(c2cc(-c3cnn(CC(F)F)c3)nc(N)n2)C1` [Example 9, 4-(1-(2,2-Difluoroethyl)-1H-pyrazol-4-yl)-6-(3-(methylamino)azetidin-1-yl)pyrimidin-2-amine] are 12.6 nM and > 100000 nM.
Turning to `CN1CCN(C(=O)c2cc3cc(Cl)ccc3[nH]2)CC1` [JNJ-7777120, reference compound], on hERG, the IC50 was ≥ 100000 nM.
With `CNC1CN(c2cc(-c3cc(Cl)nn3C)nc(N)n2)C1` [Example 26, 4-(3-Chloro-1-methyl-1H-pyrazol-5-yl)-6-(3-(methylamino)azetidin-1-yl)pyrimidin-2-amine], at human H4 receptor, the Kb is 15.8 nM. On hERG, the IC50 is > 100000 nM.
As to `CN[C@@H]1CCN(c2cc(-c3cnn(C)c3Cl)nc(N)n2)C1` [Example 5, (R)-4-(5-Chloro-1-methyl-1H-pyrazol-4-yl)-6-(3-(methylamino)pyrrolidin-1-yl)pyrimidin-2-amine], at human H4 receptor, the Kb was 3.98 nM. Moreover, the IC50 on hERG is > 100000 nM.
For the compound `CCc1[nH]nc(-c2cc(N3CC(NC)C3)nc(N)n2)c1C` [Example 40, 4-(5-Ethyl-4-methyl-1H-pyrazol-3-yl)-6-(3-(methylamino)azetidin-1-yl)pyrimidin-2-amine], the IC50 on hERG is > 31600 nM.
In the case of `CCn1cc(-c2cc(N3CC(NC)C3)nc(N)n2)c(C)n1` [Example 13, 4-(1-Ethyl-3-methyl-1H-pyrazol-4-yl)-6-(3-(methylamino)azetidin-1-yl)pyrimidin-2-amine], the Kb on human H4 receptor is 10 nM. Besides, the IC50 at hERG was > 100000 nM.
On the same counts, the results for `CNC1CN(c2cc(-c3c[nH]nc3C(F)(F)F)nc(N)n2)C1` [Example 37, 4-(3-(Methylamino)azetidin-1-yl)-6-(3-(trifluoromethyl)-1H-pyrazol-4-yl)pyrimidin-2-amine] are 31.6 nM and > 31600 nM.
On the same counts, the results for `CNC1CN(c2cc(-c3cnn(C)c3Cl)nc(N)n2)C1` [Example 15, 4-(5-Chloro-1-methyl-1H-pyrazol-4-yl)-6-(3-(methylamino)azetidin-1-yl)pyrimidin-2-amine] are 7.94 nM and > 100000 nM.
In the case of `CCn1cc(-c2cc(N3CC[C@@H](NC)C3)nc(N)n2)c(C)n1` [Example 14, (R)-4-(1-Ethyl-3-methyl-1H-pyrazol-4-yl)-6-(3-(methylamino)pyrrolidin-1-yl)pyrimidin-2-amine], the Kb on human H4 receptor is 100 nM. In addition, on hERG, the IC50 is 28800 nM.
On the same counts, the results for `CNC1CN(c2cc(-c3cnn(CCF)c3)nc(N)n2)C1` [Example 10, 4-(1-(2-Fluoroethyl)-1H-pyrazol-4-yl)-6-(3-(methylamino)azetidin-1-yl)pyrimidin-2-amine] are 5.01 nM and > 100000 nM.
For the compound `CNC1CN(c2cc(-c3[nH]nc(Cl)c3Cl)nc(N)n2)C1` [Example 42, 4-(4,5-Dichloro-1H-pyrazol-3-yl)-6-(3-(methylamino)azetidin-1-yl)pyrimidin-2-amine], at human H4 receptor, the Kb was 6.31 nM. Also, the IC50 on hERG was > 100000 nM.
On the same counts, the results for `CNC1CN(c2cc(-c3cn(CC(F)(F)F)nc3C)nc(N)n2)C1` [Example 19, 4-(3-Methyl-1-(2,2,2-trifluoroethyl)-1H-pyrazol-4-yl)-6-(3-(methylamino)azetidin-1-yl)pyrimidin-2-amine] are 50.1 nM and > 31600 nM.
In the same order, the values of `CNC1CN(c2cc(-c3cn(C(F)F)nc3C)nc(N)n2)C1` [Example 4, 4-(1-(Difluoromethyl)-3-methyl-1H-pyrazol-4-yl)-6-(3-(methylamino)azetidin-1-yl)pyrimidin-2-amine] are 2.51 nM and > 100000 nM.
Consider `CNC1CN(c2cc(-c3cn(C)nc3Br)nc(N)n2)C1` [Example 31, 4-(3-Bromo-1-methyl-1H-pyrazol-4-yl)-6-(3-(methylamino)azetidin-1-yl)pyrimidin-2-amine], for which, at human H4 receptor, the Kb was 7.94 nM. Besides, the IC50 at hERG is > 31600 nM.
In the same order, the values of `CNC1CN(c2cc(-c3nn(C)cc3C)nc(N)n2)C1` [Example 8, 4-(1,4-Dimethyl-1H-pyrazol-3-yl)-6-(3-(methylamino)azetidin-1-yl)pyrimidin-2-amine] are 7.94 nM and 23400 nM.
On the same counts, the results for `Nc1nc(-c2cnn(C(F)(F)F)c2)cc(N2CC(N)C2)n1` [Example 6, 4-(3-Aminoazetidin-1-yl)-6-(1-(trifluoromethyl)-1H-pyrazol-4-yl)pyrimidin-2-amine] are 12.6 nM and > 100000 nM.
On the same counts, the results for `CCNC1CN(c2cc(-c3cnn(C(F)(F)F)c3)nc(N)n2)C1` [Example 7, 4-(3-(Ethylamino)azetidin-1-yl)-6-(1-(trifluoromethyl)-1H-pyrazol-4-yl)pyrimidin-2-amine] are 7.94 nM and 42700 nM.
For `CNC1CN(c2cc(-c3c[nH]nc3C)nc(N)n2)C1` [Example 39, 4-(3-Methyl-1H-pyrazol-4-yl)-6-(3-(methylamino)azetidin-1-yl)pyrimidin-2-amine], the Kb on human H4 receptor was 3.98 nM. Further, the IC50 at hERG is > 31600 nM.
On the same counts, the results for `CNC1CN(c2cc(-c3cnn(C(F)F)c3C)nc(N)n2)C1` [Example 16, 4-(1-(Difluoromethyl)-5-methyl-1H-pyrazol-4-yl)-6-(3-(methylamino)azetidin-1-yl)pyrimidin-2-amine] are 2 nM and > 100000 nM.
Turning to `CNC1CN(c2cc(-c3cnn(C(C)C)c3C)nc(N)n2)C1` [Example 22, 4-(1-Isopropyl-5-methyl-1H-pyrazol-4-yl)-6-(3-(methylamino)azetidin-1-yl)pyrimidin-2-amine], the Kb at human H4 receptor is 7.94 nM. Also, the IC50 on hERG was > 100000 nM.
Turning to `CC(C)c1cc(N2CC[C@@H](N)C2)nc(N)n1` [JNJ-39758979, reference compound], the “Human H4 DMR fpKb” value on human H4 receptor was 8.5. The “hERG pIC50” value on hERG is recorded as ≤4.0.
Turning to `CCc1cc(-c2cc(N3CC(NC)C3)nc(N)n2)n(C)n1` [Example 25, 4-(3-Ethyl-1-methyl-1H-pyrazol-5-yl)-6-(3-(methylamino)azetidin-1-yl)pyrimidin-2-amine], the Kb at human H4 receptor was 100 nM.
For the compound `CNC1CN(c2cc(-c3cc(C(F)(F)F)nn3C)nc(N)n2)C1` [Example 27, 4-(1-Methyl-3-(trifluoromethyl)-1H-pyrazol-5-yl)-6-(3-(methylamino)azetidin-1-yl)pyrimidin-2-amine], the Kb on human H4 receptor is 15.8 nM. Moreover, the IC50 at hERG is 44700 nM.
As to `CCc1cc(-c2cc(N3CC(NC)C3)nc(N)n2)n[nH]1` [Example 41, 4-(5-Ethyl-1H-pyrazol-3-yl)-6-(3-(methylamino)azetidin-1-yl)pyrimidin-2-amine], the Kb on human H4 receptor is 7.94 nM. The IC50 on hERG was > 31600 nM.
On the same counts, the results for `CNC1CN(c2cc(-c3n[nH]c(C(F)(F)F)c3C)nc(N)n2)C1` [Example 17, 4-(4-Methyl-5-(trifluoromethyl)-1H-pyrazol-3-yl)-6-(3-(methylamino)azetidin-1-yl)pyrimidin-2-amine] are 1 nM and > 100000 nM.
For the compound `CNC1CN(c2cc(-c3cnn(C(F)F)c3)nc(N)n2)C1` [Example 1, 4-(1-(Difluoromethyl)-1H-pyrazol-4-yl)-6-(3-(methylamino)azetidin-1-yl)pyrimidin-2-amine], on human H4 receptor, the Kb is 1.26 nM. Further, the IC50 on hERG is > 100000 nM.
On the same counts, the results for `CNC1CN(c2cc(-c3cn[nH]c3)nc(N)n2)C1` [Example 38, 4-(3-(Methylamino)azetidin-1-yl)-6-(1H-pyrazol-4-yl)pyrimidin-2-amine] are 5.01 nM and > 31600 nM.
As to `CNC1CN(c2cc(-c3cn(C)nc3Cl)nc(N)n2)C1` [Example 29, 4-(3-Chloro-1-methyl-1H-pyrazol-4-yl)-6-(3-(methylamino)azetidin-1-yl)pyrimidin-2-amine], the Kb at human H4 receptor was 1.58 nM. The IC50 on hERG was > 100000 nM.
In the same order, the values of `CNC1CN(c2cc(-c3cn(C)nc3C)nc(N)n2)C1` [Example 18, 4-(1,3-Dimethyl-1H-pyrazol-4-yl)-6-(3-(methylamino)azetidin-1-yl)pyrimidin-2-amine] are 7.94 nM and > 100000 nM.
